Assay results reported in paper PMC7047876, “Potent Chimeric Antimicrobial Derivatives of the Medicago truncatula NCR247 Symbiotic Peptide” (Frontiers in Microbiology, 2020).
≈ marks a conversion by molar mass, not a printed value. Read-outs that look alike come from different tables or passages of the source.

Assays:
Assay type in all cases: cell-based
[1] = tested on: Acinetobacter baumannii (ATCC 17978); assay: microbe, parasite or virus in culture; settings: 3 h treatment in PPB (20 mM potassium-phosphate buffer, pH 7.4), 37°C, then plating on LB agar, read-out: Minimal bactericidal concentration (MBC) A. b.
Text: (§1) The pathogenic bacterial strains obtained from the ATCC (United States) and NCTC (National Collection of Type Cultures – England) were the Gram-positive: Enterococcus faecalis (ATCC 29212), Staphylococcus aureus (HNCMO112011), Listeria monocytogenes (ATCC 19111) and the Gram-negative: Pseudomonas aeruginosa (ATCC 27853), Escherichia coli (ATCC 8739), Salmonella enterica (ATCC 13076), Klebsiella pneumoniae (NCTC 13440), Acinetobacter baumannii (ATCC 17978).
(§2) Overnight bacterial cultures grown in LB were diluted and grown to OD600 = 0.2–0.6 at 37°C with shaking. After harvesting and washing bacteria in PPB, the suspensions were adjusted to OD600 = 0.1 corresponding to ∼10^7 bacteria/mL. Antimicrobial activity of the peptides and the antibiotics was determined in PPB in 96 well microplates using 10 μL bacterial suspension and 90 μL of the 2-fold serial dilutions of peptides or antibiotics. Peptides were tested from 25 μM to 0.125 μM whereas the antibiotics; carbenicillin (Cb) from Duchefa Biochemie (Prod.No. C0109.0025) and levofloxacin (Lvx) from Sigma-Aldrich (Prod.No. 28266-10MG-F) from […] to 0.1 μM. The microplates were incubated for 3 h at 37°C with 250 rpm shaking and then 5 μl from each sample was placed on LB agar and the growth of bacteria was monitored after overnight incubation at 37°C. The lowest concentration of the antimicrobial agents, which completely eliminated viable bacteria was the minimal bactericidal concentration (MBC).

[2] = tested on: Enterococcus faecalis (ATCC 29212); assay: microbe, parasite or virus in culture; settings: 3 h treatment in PPB (20 mM potassium-phosphate buffer, pH 7.4), 37°C, then plating on LB agar, read-out: Minimal bactericidal concentration (MBC) E. f.
Text: as §1, §2

[3] = tested on: Escherichia coli (ATCC 8739); assay: microbe, parasite or virus in culture; settings: 3 h treatment in PPB (20 mM potassium-phosphate buffer, pH 7.4), 37°C, then plating on LB agar, read-out: Minimal bactericidal concentration (MBC) E. c.
Text: as §1, §2

[4] = tested on: Klebsiella pneumoniae (NCTC 13440); assay: microbe, parasite or virus in culture; settings: 3 h treatment in PPB (20 mM potassium-phosphate buffer, pH 7.4), 37°C, then plating on LB agar, read-out: Minimal bactericidal concentration (MBC) K. p.
Text: as §1, §2

[5] = tested on: Listeria monocytogenes (ATCC 19111); assay: microbe, parasite or virus in culture; settings: 3 h treatment in PPB (20 mM potassium-phosphate buffer, pH 7.4), 37°C, then plating on LB agar, read-out: Minimal bactericidal concentration (MBC) L. m.
Text: as §1, §2

[6] = tested on: Pseudomonas aeruginosa (ATCC 27853); assay: microbe, parasite or virus in culture; settings: 3 h treatment in PPB (20 mM potassium-phosphate buffer, pH 7.4), 37°C, then plating on LB agar, read-out: Minimal bactericidal concentration (MBC) P. a.
Text: as §1, §2

[7] = tested on: Salmonella enterica (ATCC 13076); assay: microbe, parasite or virus in culture; settings: 3 h treatment in PPB (20 mM potassium-phosphate buffer, pH 7.4), 37°C, then plating on LB agar, read-out: Minimal bactericidal concentration (MBC) S. e.
Text: as §1, §2

[8] = tested on: Staphylococcus aureus (HNCMO112011); assay: microbe, parasite or virus in culture; settings: 3 h treatment in PPB (20 mM potassium-phosphate buffer, pH 7.4), 37°C, then plating on LB agar, read-out: Minimal bactericidal concentration (MBC) S. a.
Text: as §1, §2

[9] = tested on: Acinetobacter baumannii; settings: MHB
Text: as §1
(§3) Ca^2+ and Mg^2+ can inhibit the antimicrobial activity of cationic peptides, therefore the MBC and MIC values were also determined in MHB, which unlike PPB contains divalent cations and allows growth of bacteria. Bacteria were grown and prepared similarly except that bacteria were resuspended in MHB. 10 μl of bacteria OD600 = 0.1, supplemented with 45 μl MHB and 45 μl of 2-fold dilution series of peptides, were cultivated for 3 and 20 h at 37°C with shaking. Optical density of each sample was measured (Hidex Sense Microplate Reader with Plate Reader Software version 5064) and 5 μl was placed on LB agar plates after 3 and 20 h treatment. The minimal inhibitory concentration (MIC) corresponded to the lowest concentration, which inhibited growth.

[10] = tested on: Escherichia coli; settings: MHB
Text: as §1, §3

[11] = tested on: Staphylococcus aureus; settings: MHB
Text: as §1, §3

[12] = tested on: ESKAPE bacteria, L. monocytogenes and S. enterica; assay: Antimicrobial activity in PPB, summarised over the tested bacteria
Text: as §1, §2

[13] = 3 h treatment, 37°C (panel assigned)
[14] = 20 h cultivation, 37°C, optical density (panel assigned)
[15] = 20 h treatment, 37°C (panel assigned)

## CC[C@H](C)[C@H](NC(=O)[C@H](CCCCN)NC(=O)[C@H](CCCCN)NC(=O)[C@H](C)NC(=O)[C@H](CC(C)C)NC(=O)[C@H](C)NC(=O)[C@H](C)NC(=O)[C@H](CC(C)C)NC(=O)[C@H](C)NC(=O)[C@H](CCCCN)NC(=O)[C@H](CC(C)C)NC(=O)[C@H](CC(N)=O)NC(=O)[C@@H](NC(=O)[C@H](CCCCN)NC(=O)CNC(=O)[C@H](CC(C)C)NC(=O)[C@H](CC(C)C)NC(=O)[C@H](Cc1ccc(O)cc1)NC(=O)CNC(=O)[C@H](C)NC(=O)[C@H](CO)NC(=O)[C@H](CC(N)=O)NC(=O)[C@H](CC(C)C)NC(=O)[C@@H](NC(=O)[C@H](Cc1c[nH]c2ccccc12)NC(=O)CN)[C@@H](C)O)[C@@H](C)CC)C(=O)N[C@@H](CC(C)C)C(N)=O [J, Transportan, reference compound]
[1]
  MBC: 1.6 µM (≈ 4.54 µg/mL)
[2]
  MBC: 3.1 µM (≈ 8.81 µg/mL)
[3]
  MBC: 3.1 µM (≈ 8.81 µg/mL)
[4]
  MBC: 3.1 µM (≈ 8.81 µg/mL)
[5]
  MBC: 3.1 µM (≈ 8.81 µg/mL)
[6]
  MBC: 3.1 µM (≈ 8.81 µg/mL)
[7]
  MBC: 1.6 µM (≈ 4.54 µg/mL)
[8]
  MBC: 3.1 µM (≈ 8.81 µg/mL)
[9]; [13]
  MBC in Mueller Hinton Broth, panel (A), A. b.: 3.1 µM (≈ 8.81 µg/mL)
[9]; [14]
  MIC in Mueller Hinton Broth, panel (C), A. b.: 3.1 µM (≈ 8.81 µg/mL)
[9]; [15]
  MBC in Mueller Hinton Broth, panel (B), A. b.: 3.1 µM (≈ 8.81 µg/mL)
[10]; [13]
  MBC in Mueller Hinton Broth, panel (A), E. c.: 6.3 µM (≈ 17.9 µg/mL)
[10]; [14]
  MIC in Mueller Hinton Broth, panel (C), E. c.: 3.1 µM (≈ 8.81 µg/mL)
[10]; [15]
  MBC in Mueller Hinton Broth, panel (B), E. c.: 6.3 µM (≈ 17.9 µg/mL)
[11]; [13]
  MBC in Mueller Hinton Broth, panel (A), S. a.: 6.3 µM (≈ 17.9 µg/mL)
[11]; [14]
  MIC in Mueller Hinton Broth, panel (C), S. a.: 3.1 µM (≈ 8.81 µg/mL)
[11]; [15]
  MBC in Mueller Hinton Broth, panel (B), S. a.: 3.1 µM (≈ 8.81 µg/mL)

## C[C@H]1COc2c(N3CCN(C)CC3)c(F)cc3c(=O)c(C(=O)O)cn1c23 [Lvx, levofloxacin, reference compound]
[1]; Acinetobacter baumannii, ATCC17978
  MBC: 20 µM (≈ 7.23 µg/mL)
[2]; Enterococcus faecalis, ATCC29212
  MBC: 160 µM (≈ 57.8 µg/mL)
[3]; Escherichia coli, ATCC8739
  MBC: 5 µM (≈ 1.81 µg/mL)
[4]; Klebsiella pneumoniae, NCTC13440
  MBC: 320 µM (≈ 116 µg/mL)
[5]; Listeria monocytogenes, ATCC19111
  MBC: 320 µM (≈ 116 µg/mL)
[6]; Pseudomonas aeruginosa, ATCC27853
  MBC: 1.3 µM (≈ 0.47 µg/mL)
[7]; Salmonella enterica, ATCC13076
  MBC: 1.3 µM (≈ 0.47 µg/mL)
[8]; Staphylococcus aureus
  MBC: 2.5 µM (≈ 0.903 µg/mL)
[12]; 3 h in PPB, carbenicillin range excludes L. monocytogenes, peptide G range excludes E. faecalis
  MBC, range over the tested bacteria as summarised in the text: 1.25 to 320 µM

## RNGCIVDPRCPY [N-terminal part, 12 amino acid long N-terminal half of NCR247]
[12]; PPB, peptides tested up to 25 μM
  Antimicrobial activity on the tested bacteria: inactive
